What was measured:
[1] = system: EA.hy926 endothelial hybrid cells; test: MTT cell viability assay, EA.hy926; type: cell-based, human; conditions: 72 h
Method: (§1) All complexes stable in solution were investigated for their anti-proliferative effect on nine human cancer cell lines, using the MTT-based cell viability assay. Cells were seeded in 96-well microtiter plates (Sarstedt) with a cell density of 0.05 × 10^6 cells per ml and 100 µL per well and incubated for 24 h. A dilution series of test compounds was added to the wells, ranging in twelve steps from 100 µM to 5 nM. As a control, equal amounts of DMSO were added. Treated cells were further incubated for 72 h. Then, 12.5 µL per well of MTT solution (0.05% in phosphate-buffered saline (PBS)) was added, followed by another 2 h of incubation. The plates were centrifuged, the medium was discarded and 25 µL per well of SDS solution in DMSO (10% SDS, 0.6% AcOH in DMSO) was added to dissolve the formazan. The plates were incubated for a further hour. Absorbances at 570 nm and 630 nm were measured using a plate reader (Tecan). Background absorbance (630 nm) was subtracted from the formazan signal (570 nm). The resulting absorbance was directly proportional to the amount of viable cells. The control was normalized to 100% viable cells and viability of cells treated with test compounds was calculated accordingly. IC50 values were calculated based on a sigmoidal fit model using GraphPad Prism. Means and SD were calculated from at least four independent experiments.

[2] = system: HeLa cervix carcinoma cells; test: MTT cell viability assay, HeLa; type: cell-based, human; conditions: 72 h
Method: as §1

[3] = system: MCF-7 mamma carcinoma cells; test: MTT cell viability assay, MCF-7; type: cell-based, human; conditions: 72 h, read-out: IC50 MCF7
Method: as §1

518A2 melanoma cells = test: MTT cell viability assay, 518A2; type: cell-based, human; conditions: 72 h
Method: as §1

EA.hy926 cells = test: Tube formation assay; type: cell-based, human; conditions: 5 µM (CA-4 0.01 µM)
Method: EA.hy926 cells were cultured overnight in endothelial medium (37 °C, 95% humidity, 5% CO2) instead of DMEM. In addition, Matrigel was thawed on ice in the refrigerator. Pipette tips and 96-well plates were stored at − 20 °C overnight. The next day, 30 µL of Matrigel was added to each well bubble-free and the well plate was incubated for approximately 45 min (37 °C, 95% humidity, 5% CO2). Subsequently, 100 µL of cell suspension was added to each well at a concentration of 0.4–0.5 × 10^6 cells/mL onto the Matrigel-treated wells and the substances were added in tenfold pre-dilution. This was followed by incubation for approximately 6 h, until tubes formed in the negative control with DMSO. At this point, documentation under the microscope took place.

[4] = system: HCT-116^wt colon carcinoma cells; test: MTT cell viability assay, HCT-116wt; type: cell-based, human; conditions: 72 h
Method: as §1, with “Cells” for “All complexes stable in solution were investigated for their anti-proliferative effect on nine human cancer cell lines, using the MTT-based cell viability assay. Cells”

[5] = system: HCT-116^p53−/− (p53 knockout mutant) colon carcinoma cells; test: MTT cell viability assay, HCT-116 p53-/-; type: cell-based, human; conditions: 72 h
Method: as §1, with “Cells” for “All complexes stable in solution were investigated for their anti-proliferative effect on nine human cancer cell lines, using the MTT-based cell viability assay. Cells”

[6] = system: human adult dermal fibroblasts HDFa; test: MTT cell viability assay, HDFa; type: cell-based; conditions: 72 h, non-malignant fibroblasts
Method: as §1

[7] = system: mdr KB-V1^Vbl cervix carcinoma cells; test: MTT cell viability assay, KB-V1 (with and without verapamil); type: cell-based, human; conditions: 72 h, without verapamil
Method: as §1

U-87 glioblastoma cells = test: MTT cell viability assay, U-87; type: cell-based, human; conditions: 72 h
Method: as §1

[8] = system: HT-29 colon carcinoma cells; test: MTT cell viability assay, HT-29; type: cell-based, human; conditions: 72 h
Method: as §1

[9] = system: mdr MCF-7^Topo mamma carcinoma cells; test: MTT cell viability assay, MCF-7Topo; type: cell-based, human; conditions: 72 h, read-out: IC50 MCF7^Topo
Method: as §1

[10] = Stability by NMR in DMSO-d6 + 5% D2O; type: physicochemical; conditions: for Stability (31P NMR): DMSO-d6 with additional D2O, three days
Description: In a further corroboration of the complex stability, the similarity of the chalcogens sulfur and selenium was exploited. The selenolato complex 10 was synthesized and examined for its stability under identical conditions. Since ^77Se is a 1/2 spin nucleus with roughly 8% natural abundance, its compounds can be investigated directly. Depending on whether a break in the Se–Au or the Au–PR3 bond would occur, the shift would change by several hundred ppm and serve as unequivocal evidence. […] In addition, we investigated the stability of complexes 1 and 5 as representatives of the series of purines and purine nucleosides, respectively, in cell culture medium by UV/Vis spectroscopy.

[11] = system: caspase 3/7 in 518A2 melanoma cells; test: Caspase 3/7 activation; type: cell-based, human; conditions: 518A2 cells, 10 µM, 6 h
Method: The assay was conducted, following manufacturer’s instructions using the Cell Meter Caspase 3/7 activity apoptosis assay kit (AAT Bioquest). Briefly, 518A2 melanoma cells were seeded in 96-well flat black microtiter plates with a density of 0.22 × 10^6 cells per mL and 90 µL per well. After 24 h of incubation, 10 µL per well of tenfold diluted test compounds was added, and the cells were incubated for a further 6 h. Subsequently, 100 µL per well of Caspase 3/7 substrate working solution was added and incubated for 1 h in the dark at room temperature. The fluorescence was measured using a micro-plate reader (Tecan) at ex/em = 490/525 nm.

SMILES	IC50 [1]	IC50 [2]	IC50 [3]	IC50 (518A2 melanoma cells)	Inhibition of tube formation (EA.hy926 cells)	IC50 [4]	IC50 [5]	IC50 [6]	IC50 [7]	IC50 (U-87 glioblastoma cells)	IC50 [8]	IC50 [9]	Stability (31P NMR) [10]	Caspase 3/7 activity [11]	Stability (77Se NMR) ([10]; DMSO-d6 + 5% D2O, identical conditions)
CSc1ncnc2c1ncn2[C@@H]1O[C@H](CO)[C@@H](O)[C@H]1O [6-MMR, 6-methylmercaptopurine riboside, reference compound]	0.11 ± 0.001 µM	0.0056 ± 0.0003 µM	0.09 ± 0.003 µM	1.4 ± 0.12 µM	inhibitory effects	0.1 ± 0.008 µM	0.05 ± 0.001 µM	5.8 ± 0.46 µM	–	–	–	–	–	–	–
COc1ccc(/C=C\c2cc(OC)c(OC)c(OC)c2)cc1O [CA-4, combretastatin A-4]	–	–	–	–	Complete inhibition of tube formation	–	–	–	–	–	–	–	–	–	–
c1ccc([PH]([Au][S]c2ncnc3[nH]cnc23)(c2ccccc2)c2ccccc2)cc1 [Complex 1, (1,7-Dihydro-6H-purine-6-thiolato) (triphenylphosphane) gold(I)]	2.9 ± 0.7 µM	2.6 ± 0.04 µM	13 ± 1.12 µM	8 ± 0.71 µM	–	4.9 ± 1 µM	1.7 ± 0.3 µM	–	1.9 ± 0.1 µM	0.91 ± 0.09 µM	8 ± 0.73 µM	6.6 ± 0.65 µM	–	–	–
Nc1nc([S][Au][PH](c2ccccc2)(c2ccccc2)c2ccccc2)c2nc[nH]c2n1 [Complex 2, (2-Amino-1,7-dihydro-6H-purine-6-thiolato) (triphenylphosphane) gold(I)]	0.5 ± 0.1 µM	0.6 ± 0.05 µM	2.2 ± 0.13 µM	4.4 ± 0.33 µM	–	0.8 ± 0.01 µM	0.58 ± 0.01 µM	–	0.3 ± 0.07 µM	1 ± 0.1 µM	4.4 ± 0.32 µM	3.7 ± 0.37 µM	–	–	–
CC[PH](CC)(CC)[Au][S]c1ncnc2[nH]cnc12 [Complex 3, (1,7-Dihydro-6H-purine-6-thiolato) (triethylphosphane) gold(I)]	1.5 ± 0.11 µM	6.8 ± 0.62 µM	9.4 ± 0.53 µM	8.4 ± 0.62 µM	–	6.3 ± 0.3 µM	3.6 ± 0.8 µM	–	2.5 ± 0.32 µM	6.9 ± 0.47 µM	6.4 ± 1.4 µM	10 ± 0.26 µM	–	–	–
CC[PH](CC)(CC)[Au][S]c1nc(N)nc2[nH]cnc12 [Complex 4, (2-Amino-1,7-dihydro-6H-purine-6-thiolato) (triethylphosphane) gold(I)]	1.1 ± 0.08 µM	15 ± 4.1 µM	21 ± 3.4 µM	16 ± 0.91 µM	–	25 ± 3.1 µM	11 ± 0.5 µM	–	12 ± 1 µM	7 ± 0.66 µM	5.8 ± 1.7 µM	4.9 ± 0.43 µM	did not change noticeably	–	–
CC[PH](CC)(CC)[Au][S]c1ncnc2c1ncn2[C@@H]1O[C@H](CO)[C@@H](O)[C@H]1O [Complex 7, (1,7-Dihydro-6H-purine-9-β-D-ribofuranosyl-6-thiolato) (triethylphosphane) gold(I)]	0.43 ± 0.02 µM	0.51 ± 0.05 µM	2.1 ± 0.2 µM	3 ± 0.21 µM	–	1.6 ± 0.2 µM	0.5 ± 0.03 µM	7 ± 0.62 µM	0.4 ± 0.04 µM	1.1 ± 0.11 µM	2.2 ± 0.17 µM	1.2 ± 0.11 µM	did not change noticeably	even exceeded the effects of the three controls	–
CC[PH](CC)(CC)[Au][S]c1nc(N)nc2c1ncn2[C@@H]1O[C@H](CO)[C@@H](O)[C@H]1O [Complex 8, (2-Amino-1,7-dihydro-6H-purine-9-β-D-ribofuranosyl-6-thiolato) (triethylphosphane) gold(I)]	1.7 ± 0.14 µM	2.4 ± 0.21 µM	10 ± 0.83 µM	3.4 ± 0.33 µM	–	5.5 ± 0.3 µM	1.8 ± 0.06 µM	7 ± 0.7 µM	0.7 ± 0.07 µM	1 ± 0.03 µM	4.5 ± 0.34 µM	3.6 ± 0.34 µM	–	–	–
CC[PH](CC)(CC)[Au][S]c1nc([S][Au][PH](CC)(CC)CC)c2nc[nH]c2n1 [Complex 9, (1,7-Dihydro-6H-purine-2,6-bisthiolato) (triethylphosphane) gold(I)]	–	17.6 ± 0.8 µM	–	13.4 ± 1.2 µM	–	11.2 ± 0.78 µM	3.7 ± 0.35 µM	–	–	–	11.1 ± 0.32 µM	–	–	–	–
CC[PH](CC)(CC)[Au][Se]c1ncnc2[nH]cnc12 [Complex 10, (1,7-Dihydro-6H-purine-6-selenolato) (triethylphosphane) gold(I)]	–	–	–	–	–	–	–	–	–	–	–	–	–	–	no change in the shift of the ^77Se NMR signal
